For data set [1], the system named is HCT-116. As to the kind of experiment: Antitumor activity against human HCT-116 cells assessed as decrease in intracellular NAD level at 30 uM measured after 12 to 24 hrs by absorbance based assay. It counts as functional. Set-up: scale not given: the % may be the effect or the level left. The note with it: time 12-24 hrs.
The next data set deals with A2780. As to the kind of experiment: cells. The note with it: Homo sapiens, A2780, 72 h.
Data set [2] is described as follows: Cmax in ICR mouse at 10 mg/kg, iv by LC-MS/MS analysis. The note with it: in vivo. The data set is classed as ADME, organism-based.
Data set [3] is described as follows: Cmax in Sprague-Dawley rat plasma at 60 mg/kg, ip measured up to 48 hrs by LC-MS/MS analysis. The data set is classed as ADME, organism-based.
Data set [4] concerns the target Nicotinamide phosphoribosyltransferase (Mus musculus, UniProt Q99KQ4). As to the kind of experiment: Inhibition of N-terminal His-tagged mouse NAMPT transformed in Escherichia coli Rosetta cells.
For data set [5], the target named is Nicotinamide phosphoribosyltransferase (Homo sapiens, UniProt P43490). As to the kind of experiment: Inhibition of NAMPT (unknown origin) using NAM and PRPP as substrates incubated for 2 hrs in presence of ATP by fluorimetric plate reader assay.
Chain of Nicotinamide phosphoribosyltransferase (Homo sapiens, UniProt P43490) (P43490 whole entry): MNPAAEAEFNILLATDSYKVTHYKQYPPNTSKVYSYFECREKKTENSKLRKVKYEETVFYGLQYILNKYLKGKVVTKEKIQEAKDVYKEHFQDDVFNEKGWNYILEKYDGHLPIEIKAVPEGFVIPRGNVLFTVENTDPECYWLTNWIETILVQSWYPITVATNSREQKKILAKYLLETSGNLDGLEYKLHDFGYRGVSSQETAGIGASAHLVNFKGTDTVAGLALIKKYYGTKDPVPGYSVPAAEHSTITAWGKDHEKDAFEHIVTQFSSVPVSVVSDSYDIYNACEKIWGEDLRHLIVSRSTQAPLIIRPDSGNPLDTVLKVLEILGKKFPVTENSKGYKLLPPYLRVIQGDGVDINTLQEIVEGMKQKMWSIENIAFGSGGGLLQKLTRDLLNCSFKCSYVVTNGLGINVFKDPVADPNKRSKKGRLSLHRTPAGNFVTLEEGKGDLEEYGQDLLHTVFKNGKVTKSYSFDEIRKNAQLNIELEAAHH
In data set [6] the test system is HCT-116. As to the kind of experiment: cells. The note with it: Homo sapiens, HCT-116, 48 h.

Bounds are passed on as bounds.

Consider 10 compounds from ChEMBL document CHEMBL5543134, “Channeling Nicotinamide Phosphoribosyltransferase (NAMPT) to Address Life and Death” (J Med Chem, 2024).

Chain of Nicotinamide phosphoribosyltransferase (Mus musculus, UniProt Q99KQ4) (Q99KQ4 whole entry): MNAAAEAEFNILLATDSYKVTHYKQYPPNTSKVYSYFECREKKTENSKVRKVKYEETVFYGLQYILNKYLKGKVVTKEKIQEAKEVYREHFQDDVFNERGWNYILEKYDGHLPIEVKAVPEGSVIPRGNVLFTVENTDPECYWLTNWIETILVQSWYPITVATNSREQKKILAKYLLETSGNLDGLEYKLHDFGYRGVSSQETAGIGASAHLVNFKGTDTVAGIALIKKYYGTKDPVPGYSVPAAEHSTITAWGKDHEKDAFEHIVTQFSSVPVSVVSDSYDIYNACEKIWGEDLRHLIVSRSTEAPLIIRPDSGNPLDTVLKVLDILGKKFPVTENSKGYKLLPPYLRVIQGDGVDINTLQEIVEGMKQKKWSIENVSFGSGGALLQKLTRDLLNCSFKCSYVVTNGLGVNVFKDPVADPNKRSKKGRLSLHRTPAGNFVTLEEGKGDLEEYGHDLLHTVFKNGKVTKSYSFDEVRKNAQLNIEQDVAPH

`Nc1cc(F)ccc1NC(=O)c1ccc(CNC(=O)/C=C/c2cccnc2)cc1` [TUCIDINOSTAT]: the Activity in the data set with HCT-116 [1] is 50%.
What is called IC50 is the concentration at which inhibition is half-maximal. `CCN(CC)S(=O)(=O)c1ccc(NC(=O)NCc2ccncc2)cc1` gave an IC50 with A2780 of 364 nM.
As usually defined, the Cmax is the maximum level reached in the sampled fluid or tissue. Regarding `O=C(/C=C/c1cccnc1)NCCCCC1CCN(C(=O)c2ccccc2)CC1` [DAPORINAD], the peak concentration (Cmax) in data set [2] came out at 14 µM; in data set [3] it was 6.7 µM.
Take `CCN(CC)C(=O)c1noc2cc(NC(=O)NCc3cnco3)ccc12`: in data set [4], the IC50 stood at 1490 nM.
Compound `O=S(=O)(c1ccc(NC(=S)NCc2ccncc2)cc1)N1CCCCC1` gave an IC50 in the data set with A2780 of over 10 nM.
The same measure, in the same setting: as for `Cn1nccc1-c1nc2ccc(NC(=O)NCc3ccncc3)cn2n1`, the figure is 160 nM.
As for `O=C(NCc1ccncc1)Nc1ccc(S(=O)(=O)N2C[C@H]3CC[C@@H](C2)O3)cc1`, the IC50 in data set [5] amounted to 279 nM.
As to `CCOC(=O)c1ccc(NC(=S)NCc2ccncc2)cc1`, it took 1000 nM to reach half-maximal inhibition with A2780 (IC50).
With `CCOC(=O)c1ccc(NC(=O)NCc2ccncc2)cc1`, the 50% inhibitory concentration (IC50) with A2780 was 320 nM.
In the data set with HCT-116 [6], `C#CCN(Cc1cc2c(=O)n(C)c(CN3CCN(CCN)CC3)nc2cc1Cl)c1ccc(C(=O)NCc2cccnc2)cc1` had a 50% inhibitory concentration (IC50) of 0.68 nM.
